{"source": "patent US11198695B2", "about": "“Fused ring derivative having MGAT-2 inhibitory activity” (Shionogi & Co., Ltd., priority 2017, dated 2021)", "key": {"[1]": {"target": "recombinant human MGAT2 (Homo sapiens (Human), UniProt Q3SYC2)", "sequence (Q3SYC2 whole entry)": "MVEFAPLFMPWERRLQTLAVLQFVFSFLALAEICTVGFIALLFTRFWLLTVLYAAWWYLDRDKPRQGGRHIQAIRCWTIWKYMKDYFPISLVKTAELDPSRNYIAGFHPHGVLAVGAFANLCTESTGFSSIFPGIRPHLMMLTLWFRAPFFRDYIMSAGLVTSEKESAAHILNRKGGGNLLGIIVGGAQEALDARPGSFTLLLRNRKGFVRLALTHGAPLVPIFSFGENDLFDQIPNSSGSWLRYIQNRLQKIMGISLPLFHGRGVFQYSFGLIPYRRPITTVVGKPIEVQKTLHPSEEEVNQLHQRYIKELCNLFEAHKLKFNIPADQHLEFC", "assay": "Measurement of human MGAT2 inhibitory activity", "type": "biochemical", "outline": "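Membrane fraction of Sf9 cells expressing N-terminally Flag-tagged full-length human MGAT2, incubated 1 h at room temperature in 100 mmol/L phosphate pH 7.4 with 2 mmol/L DTT. The substrate solution held 30 μmol/L 2-oleoylglycerol and 10 μmol/L oleoyl-CoA. Diolein product was quantified by RapidFire ESI Q-TOF MS against diolein-d5 internal standard; % inhibition was set relative to with/without-enzyme controls.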"}, "[2]": {"assay": "Metabolism stability test", "type": "in vitro ADME", "conditions": "human liver microsomes, 30 minutes, 37° C., NADPH, 0.5 μmol/L of test compound", "experimental": "Using commercially available pooled human hepatic microsomes, the compound of the present invention was reacted for a constant time, a remaining rate was calculated by comparing a reacted sample and an unreacted sample, thereby, a degree of metabolism of the compound of the present invention in liver was assessed.\nA reaction was performed (oxidative reaction) at 37° C. for 0 minute or 30 minutes in the presence of 1 mmol/L NADPH in 0.2 mL of a buffer (50 mmol/L Tris-HCl pH 7.4, 150 mmol/L potassium chloride, 10 mmol/L magnesium chloride) containing 0.5 mg protein/mL of human liver microsomes. After the reaction, 50 μL of the reaction solution was added to 100 μL of a methanol/acetonitrile=1/1 (v/v) solution, mixed and centrifuged at 3000 rpm for 15 minutes. The compound of the present invention in the supernatant was quantified by LC/MS/MS, and a remaining amount of the compound of the present invention after the reaction was calculated, letting a compound amount at 0 minute reaction time to be 100%. (Result) Remaining rate was shown at 0.5 μmol/L of test compound."}, "[3]": {"assay": "Solubility test (1% DMSO addition, pH 6.8 artificial intestinal juice)", "type": "physicochemical", "conditions": "16 hours at 25° C.; for solubility at 16 h: pH 6.8 artificial intestinal juice with 1% DMSO, kinetic from dmso stock", "experimental": "The solubility of the compound of the present invention was determined under 1% DMSO addition conditions. 10 mmol/L solution of the compound was prepared with DMSO, and 6 μL of the solution of the compound of the present invention was added to 594 μL of pH 6.8 artificial intestinal juice (118 mL of 0.2 mol/L NaOH test solution and water were added to 250 mL of 0.2 mol/L potassium dihydrogen phosphate test solution to reach 1000 mL). The mixture was left standing for 16 hours at 25° C., and the mixture was vacuum-filtered. The filtrate was two-fold diluted with methanol/water=1/1 (V/V), and the compound concentration in the filtrate was measured with HPLC or LC/MS/MS by the absolute calibration method."}, "[4]": {"conditions": "read-out: IC50 (concentration exhibiting 50% enzyme inhibition), Table 53"}, "[5]": {"conditions": "read-out: IC50 (concentration exhibiting 50% enzyme inhibition), Table 52"}}, "note": "Values joined by “and” are separate entries in the source; they are usually repeats but may differ in a detail not shown here. Identical values can stand only once. Like-named read-outs stand apart in the source and are kept apart here.", "data": [{"smiles": "Cc1ccc(-n2nc3c(c2NC(=O)CS(C)(=N)=O)C(=O)N[C@@]2(CCc4cc(OCC(F)(F)F)ccc42)C3)nc1", "note": "(single isomer, unassigned) [II-276]", "values": [{"measurement": "IC50", "setting": "[1]; [4]", "value": 2.2, "unit": "nM"}, {"measurement": "Remaining rate (%)", "setting": "[2]", "value": 98.2, "unit": "%"}, {"measurement": "solubility at 16 h", "setting": "[3]", "value": "> 50", "unit": "µM"}]}, {"smiles": "CS(=O)(=O)CC(=O)Nc1c2c(nn1CCC1CC1)C[C@]1(CCc3cc(OCC(F)(F)F)ccc31)NC2=O", "note": "[Compound I-8]", "values": [{"measurement": "Remaining rate (%)", "setting": "[2]", "value": 102, "unit": "%"}, {"measurement": "solubility at 16 h", "setting": "[3]", "value": "> 50", "unit": "µM"}]}, {"smiles": "CS(=O)(=O)CC(=O)Nc1c2c(nn1-c1ccccn1)C[C@]1(CCc3cc(OCCCC(F)(F)F)ccc31)NC2=O", "note": "[Compound I-23]", "values": [{"measurement": "Remaining rate (%)", "setting": "[2]", "value": 98.7, "unit": "%"}, {"measurement": "solubility at 16 h", "setting": "[3]", "value": 48.2, "unit": "µM"}]}, {"smiles": "O=C1N[C@@]2(CCc3cc(OCCCC(F)(F)F)ccc32)Cc2nn(CCC3CC3)c(-c3nn[nH]n3)c21", "note": "[Compound I-24]", "values": [{"measurement": "IC50", "setting": "[1]; [5]", "value": 8.82, "unit": "nM"}, {"measurement": "Remaining rate (%)", "setting": "[2]", "value": 78.2, "unit": "%"}, {"measurement": "Solubility", "setting": "[3]", "value": ">50", "unit": "µM"}]}, {"smiles": "CS(=O)(=O)CC(=O)Nc1c2c(nn1-c1ccc(C#N)cn1)C[C@]1(CCc3cc(N4CC(F)(F)C4)ccc31)NC2=O", "note": "[Compound I-67]", "values": [{"measurement": "IC50", "setting": "[1]; [5]", "value": 7, "unit": "nM"}, {"measurement": "Remaining rate (%)", "setting": "[2]", "value": 89, "unit": "%"}, {"measurement": "solubility at 16 h", "setting": "[3]", "value": "> 50", "unit": "µM"}]}, {"smiles": "CS(=O)(=O)CC(=O)Nc1c2c(nn1-c1ccc(C#N)cn1)C[C@@]1(CCc3cc(OCC(F)(F)F)ccc31)NC2=O", "note": "[Compound I-167]", "values": [{"measurement": "IC50", "setting": "[1]; [5]", "value": 3.3, "unit": "nM"}, {"measurement": "Remaining rate (%)", "setting": "[2]", "value": 89, "unit": "%"}, {"measurement": "solubility at 16 h", "setting": "[3]", "value": "> 50", "unit": "µM"}]}, {"smiles": "CS(=O)(=O)CC(=O)Nc1c2c(nn1-c1ccc(C#N)cn1)C[C@](c1ccc(OCC(F)(F)F)cc1F)(C(F)(F)F)NC2=O", "note": "[Compound I-170]", "values": [{"measurement": "IC50", "setting": "[1]; [5]", "value": 5.1, "unit": "nM"}, {"measurement": "Remaining rate (%)", "setting": "[2]", "value": 100, "unit": "%"}, {"measurement": "solubility at 16 h", "setting": "[3]", "value": "> 50", "unit": "µM"}]}, {"smiles": "CS(=O)(=O)CC(=O)Nc1c2c(nn1-c1ccc(C#N)cn1)C[C@]1(CCc3cc(OCC(F)(F)F)ccc31)NC2=O", "note": "[Compound I-190]", "values": [{"measurement": "Remaining rate (%)", "setting": "[2]", "value": 96.6, "unit": "%"}, {"measurement": "solubility at 16 h", "setting": "[3]", "value": "> 50", "unit": "µM"}]}, {"smiles": "O=C1N[C@@]2(CCOc3cc(OCCCC(F)(F)F)ccc32)Cc2nn(CCC3CC3)c(-c3nn[nH]n3)c21", "note": "[Compound I-200]", "values": [{"measurement": "IC50", "setting": "[1]; [5]", "value": 5.6, "unit": "nM"}, {"measurement": "Remaining rate (%)", "setting": "[2]", "value": 94, "unit": "%"}, {"measurement": "solubility at 16 h", "setting": "[3]", "value": "> 50", "unit": "µM"}]}, {"smiles": "CS(=O)(=O)CC(=O)Nc1c2c(nn1CCCC(F)(F)F)C[C@@]1(CCc3cc(OCC(F)(F)F)ccc31)NC2=O", "note": "[Compound I-212]", "values": [{"measurement": "Remaining rate (%)", "setting": "[2]", "value": 62.6, "unit": "%"}, {"measurement": "solubility at 16 h", "setting": "[3]", "value": "> 50", "unit": "µM"}]}, {"smiles": "Cc1ccc(-n2nc3c(c2NC(=O)CS(C)(=O)=O)C(=O)N[C@@]2(CCc4cc(OCC(F)(F)F)ccc42)C3)nc1", "note": "[Compound I-236]", "values": [{"measurement": "Remaining rate (%)", "setting": "[2]", "value": 87.6, "unit": "%"}, {"measurement": "solubility at 16 h", "setting": "[3]", "value": "> 50", "unit": "µM"}]}, {"smiles": "Cc1ccc(-n2nc3c(c2NC(=O)CS(C)(=O)=O)C(=O)N[C@@]2(CCOc4cc(OCC(F)(F)F)ccc42)C3)nc1", "note": "[Compound I-275]", "values": [{"measurement": "Remaining rate (%)", "setting": "[2]", "value": 91.8, "unit": "%"}, {"measurement": "solubility at 16 h", "setting": "[3]", "value": "> 50", "unit": "µM"}]}, {"smiles": "CS(=O)(=O)CC(=O)Nc1c2c(nn1CCCOC(F)(F)F)C[C@@]1(CCc3cc(OCC(F)(F)F)cc(F)c31)NC2=O", "note": "[II-93]", "values": [{"measurement": "Remaining rate (%)", "setting": "[2]", "value": 103, "unit": "%"}, {"measurement": "solubility at 16 h", "setting": "[3]", "value": "> 50", "unit": "µM"}]}, {"smiles": "CS(=O)(=O)CC(=O)Nc1c2c(nn1CCCOC(F)(F)F)C[C@@]1(CCOc3cc(OCC(F)(F)F)ccc31)NC2=O", "note": "[II-121]", "values": [{"measurement": "IC50", "setting": "[1]; [4]", "value": 2.91, "unit": "nM"}, {"measurement": "Remaining rate (%)", "setting": "[2]", "value": 89.7, "unit": "%"}, {"measurement": "Solubility", "setting": "[3]", "value": ">50", "unit": "µM"}]}, {"smiles": "Cc1ccc(-n2nc3c(c2NC(=O)CS(C)(=O)=O)C(=O)N[C@@]2(CCOc4cc(OCC(C)(F)F)ccc42)C3)nc1", "note": "[II-151]", "values": [{"measurement": "Remaining rate (%)", "setting": "[2]", "value": 82.6, "unit": "%"}, {"measurement": "solubility at 16 h", "setting": "[3]", "value": "> 50", "unit": "µM"}]}, {"smiles": "CS(=O)(=O)CC(=O)Nc1c2c(nn1-c1ccc(C(F)F)cc1)C[C@]1(CCc3cc(OCC(F)(F)F)ccc31)NC2=O", "note": "[II-174]", "values": [{"measurement": "Remaining rate (%)", "setting": "[2]", "value": 99.9, "unit": "%"}, {"measurement": "solubility at 16 h", "setting": "[3]", "value": 32.4, "unit": "µM"}]}, {"smiles": "Cc1ccc(-n2nc3c(c2C(=O)NS(=O)(=O)C2CC2)C(=O)N[C@@]2(CCc4cc(OCC(F)(F)F)ccc42)C3)nc1", "note": "[II-202]", "values": [{"measurement": "IC50", "setting": "[1]; [4]", "value": "9.13 nM and < 1 nM"}, {"measurement": "Remaining rate (%)", "setting": "[2]", "value": 98.7, "unit": "%"}, {"measurement": "solubility at 16 h", "setting": "[3]", "value": "> 50", "unit": "µM"}]}, {"smiles": "CS(=O)(=O)CC(=O)Nc1c2c(nn1-c1ccc(F)c(F)c1)C[C@]1(CCOc3cc(CCC(F)(F)F)ccc31)NC2=O", "note": "[II-225]", "values": [{"measurement": "Remaining rate (%)", "setting": "[2]", "value": 104, "unit": "%"}, {"measurement": "solubility at 16 h", "setting": "[3]", "value": 45.1, "unit": "µM"}]}, {"smiles": "Cc1cc(-n2nc3c(c2NC(=O)CS(C)(=O)=O)C(=O)N[C@@]2(CCOc4cc(OCCCC(F)(F)F)ccc42)C3)no1", "note": "[II-233]", "values": [{"measurement": "IC50", "setting": "[1]; [4]", "value": 0.224, "unit": "nM"}, {"measurement": "Remaining rate (%)", "setting": "[2]", "value": 94.7, "unit": "%"}, {"measurement": "solubility at 16 h", "setting": "[3]", "value": "> 50", "unit": "µM"}]}]}
